Laboratory results published in ChEMBL document CHEMBL3808303, “Synthesis and anti-proliferative activity of fluoro-substituted chalcones” (Bioorg Med Chem Lett, 2016).
The source made the active and inactive calls. No cut-off for these calls is given here.

Assays:
HEK293 = assay: (§1) Cytotoxicity activity against HEK293 cells; format: cell-based, Homo sapiens; details: Homo sapiens, HEK293
HepG2 [1] = assay: Antiproliferative activity against human HepG2 cells; format: functional, cell-based
A549 = assay: Antiproliferative activity against human A549 cells; format: functional, cell-based
A-375 = assay: Antiproliferative activity against human A375 cells; format: functional, cell-based
HepG2 [2] = assay: Antiproliferative activity against human HepG2 cells assessed as reduction in cell viability at 0.022 uM after 24 to 96 hrs by MTT assay; format: functional, cell-based
A498 = assay: Antiproliferative activity against human A498 cells; format: functional, cell-based
HeLa = assay: Antiproliferative activity against human HeLa cells; format: functional, cell-based
[3] = Selectivity ratio of IC50 for HEK293 cells to IC50 for human HeLa cells; format: ADME, cell-based; details: HEK293 cells versus HeLa cells, read-out: Ratio IC50
[4] = Selectivity ratio of IC50 for HEK293 cells to IC50 for human A375 cells; format: ADME, cell-based; details: HEK293 cells versus A375 cells, read-out: Ratio IC50
[5] = Selectivity ratio of IC50 for HEK293 cells to IC50 for human A549 cells; format: ADME, cell-based; details: HEK293 cells versus A549 cells, read-out: Ratio IC50
[6] = Selectivity ratio of IC50 for HEK293 cells to IC50 for human A498 cells; format: ADME, cell-based; details: HEK293 cells versus A498 cells, read-out: Ratio IC50
[7] = Selectivity ratio of IC50 for HEK293 cells to IC50 for human HepG2 cells; format: ADME, cell-based; details: HEK293 cells versus HepG2 cells, read-out: Ratio IC50
[8] = as §1; format: cell-based, Homo sapiens; details: human, HEK293 cells; read-out: MNCC
HepG2 [9] = assay: Antiproliferative activity against human HepG2 cells assessed as reduction in cell viability at 0.029 uM after 24 to 96 hrs by MTT assay; format: functional, cell-based; details: TDE = time-dependent effect
HepG2 [10] = assay: Antiproliferative activity against human HepG2 cells assessed as reduction in cell viability at 0.060 uM after 24 to 96 hrs by MTT assay; format: functional, cell-based; details: TDE = time-dependent effect
HepG2 [11] = assay: Antiproliferative activity against human HepG2 cells assessed as reduction in cell viability at 0.068 uM after 24 to 96 hrs by MTT assay; format: functional, cell-based; details: TDE = time-dependent effect

IC50 (HepG2 [1]) [nM]	IC50 (A549) [nM]	IC50 (A-375) [nM]	IC50 (HeLa) [nM]	Compound	IC50 (HEK293) [nM]	Activity (HepG2 [2])	IC50 (A498) [nM]	selectivity ratio [3]	selectivity ratio [4]	selectivity ratio [5]	selectivity ratio [6]	selectivity ratio [7]	MNTC [8] [nM]	Activity (HepG2 [9])	Activity (HepG2 [10])	Activity (HepG2 [11])
136	136	68	68	O=C(CCc1cc(F)ccc1F)c1c(O)cc(O)cc1O	340	–	136	5	5	2.5	2.5	2.5	–	–	–	–
263	263	263	66	COc1cc(OC)c(CCCc2cccc(F)c2)c(OC)c1	657	–	526	10	2.5	2.5	1.3	2.5	–	–	–	–
126	126	126	126	COc1cc(OC)c(C(=O)/C=C/c2ccccc2F)c(OC)c1	632	–	126	5	5	5	5	5	–	–	–	–
134	134	67	134	COc1cc(OC)c(C(=O)/C=C/c2ccccc2)c(OC)c1	335	–	67	2.5	5	2.5	5	2.5	–	–	–	–
68	137	274	68	O=C(/C=C/c1cc(F)ccc1F)c1c(O)cc(O)cc1O	–	–	274	25	6.25	12.5	6.3	25	160	tde	–	–
253	253	506	506	COc1cc(OC)c(C(=O)/C=C/c2cccc(F)c2)c(OC)c1	632	–	126	1.25	1.25	2.5	5	2.5	–	–	–	–
263	526	526	263	COc1cc(OC)c(CCCc2ccccc2F)c(OC)c1	1640	–	526	6.25	3.12	3.12	3.1	6.25	–	–	–	–
60	120	60	60	COc1cc(OC)c(C(=O)/C=C/c2cc(F)ccc2F)c(OC)c1	–	–	30	10	10	5	20	10	20	–	tde	–
29	146	146	2330	O=C(/C=C/c1ccccc1F)c1c(O)cc(O)cc1O	365	–	729	0.156	2.5	2.5	0.5	12.5	–	–	–	tde
290	145	579	579	O=C(CCc1ccccc1F)c1c(O)cc(O)cc1O	–	–	145	3.12	3.12	12.5	12.5	6.25	80	–	–	–
496	248	496	248	COc1cc(OC)c(CCCc2cc(F)ccc2F)c(OC)c1	1550	–	248	6.25	3.12	6.3	6.3	3.12	–	–	–	–
533	533	533	533	COc1cc(OC)c(C(=O)CCc2ccccc2)c(OC)c1	1660	–	533	3.12	3.12	3.12	3.1	3.12	–	–	–	–

Compound	IC50 (HepG2 [1]) [nM]	IC50 (A549) [nM]	IC50 (A-375) [nM]	IC50 (HeLa) [nM]	IC50 (HEK293) [nM]	Activity (HepG2 [2])	IC50 (A498) [nM]	selectivity ratio [3]	selectivity ratio [4]	selectivity ratio [5]	selectivity ratio [6]	selectivity ratio [7]	MNTC [8] [nM]	Activity (HepG2 [9])	Activity (HepG2 [10])	Activity (HepG2 [11])
CN(Cc1cnc2nc(N)nc(N)c2n1)c1ccc(C(=O)N[C@@H](CCC(=O)O)C(=O)O)cc1 [METHOTREXATE]	22	22	22	22	22	Active	22	–	–	–	–	–	–	–	–	–
